Earlier results as cited in article PMC6699497 (Drug Design, Development and Therapy, 2019).

How the values were obtained:
[1] = species not given
[2] = rat
[3] = previous study compared with present value

plasma protein binding fraction [1]: 88–95% | oral bioavailability [2]: 42–53% | Cmax [2, 3]: 326.00 ng/mL | t1/2 [2, 3]: 1.40 h
Compound: CNC(=O)c1c(C)oc2cc(Oc3ncnc4cc(OC)c(OC)cc34)ccc12 [Fruquintinib, 6-(6,7-dimethoxyquinazolin-4-yloxy) - N,2-dimethylbenzofuran-3-carboxamide]
